Measured values published in publication PMC5733001, “Biochemical and Thermodynamical Characterization of Glucose Oxidase, Invertase, and Alkaline Phosphatase Secreted by Antarctic Yeasts” (Frontiers in Molecular Biosciences, 2017).
Blank lines part the entries; values can stand above or below the molecule they belong to.

Key:
[1] = tested on: T1, GOD (glucose oxidase) from G. gastrica; assay: Michaelis-Menten initial rates; peroxidase / o-dianisidine assay, […] nm; assay type: biochemical, Goffeauzyma gastrica; settings: 64 °C, 2 M CaCl2; glucose 0.006-11 mM; O2 as co-substrate
T1 construct: native extracellular enzyme purified from yeast culture supernatant (ammonium sulfate, Superdex 75); Mr 91,000 by SDS-PAGE

[2] = tested on: T2, ALP (alkaline phosphatase) from Dioszegia sp.; assay: Michaelis-Menten initial rates; alkaline phosphatase assay kit, […] nm; assay type: biochemical; settings: 47 °C, pH 9.0; pNPP 0.001-2 mM
T2 construct: native extracellular enzyme purified from yeast culture supernatant (ammonium sulfate, anion exchange); Mr 39,000 by SDS-PAGE

[3] = substrate: OC[C@H]1O[C@@](CO)(O[C@H]2O[C@H](CO)[C@@H](O)[C@H](O)[C@H]2O)[C@@H](O)[C@@H]1O; assay: purified protein; assay type: biochemical, Hansenula anomala; settings: 60 °C, pH 5.0, sucrose 1-100 mM

Km [1]: 1.6 mM
Molecule: OC[C@H]1OC(O)[C@H](O)[C@@H](O)[C@@H]1O (stereo partly shown) [glucose]

Km [2]: 590 µM
Molecule: O=[N+]([O-])c1ccc(OP(=O)(O)O)cc1 [p-nitrophenylphosphate]

B1: Inv (invertase) from W. anomalus (Hansenula anomala) (protein)
chain: STEYLRPQIHLTPDQGWMNDPNGMFYDRKDKLWHVYFQHNPDKKSIWATPVTWGHSTSKDLLTWDYHGNALEPENDDEGIFSGSVVVDRNNTSGFFNDSTDPEQRIVAIYTNNAQLQTQEIAYSLDKGYSFIKYDQNPVINVNSSQQRDPKVLWHDESNQWIMVVAKTQEFKVQIYGSPDLKKWDLKSNFTSNGYLGFQYECPGLFKLPIENPLNDTVTSKWVLLLAINPGSPLGGSINEYFIGDFDGTTFHPDDGATRFMDIGKDFYAFQSFDNTEPEDGALGLAWASNWQYANTVPTENWRSSMSLVRNYTLKYVDVNPENYGLTLIQKPVYDTKETRLNETLKTLETINEYEVNDLKLDKSSFVATDFNTERNATGVFEFDLKFTQTDLKMGYSNMTTQFGLYIHSQTVKGSQETLQLVFDTLSTTWYIDRTTQHSFQRNSPVFTERISTYVEKIDTTDQGNVYTLYGVVDRNILELYFNDGSIAMTNTFFFREGKIPTSFEVVCDSEKSFITIDELSVRELARK
notes: native extracellular enzyme purified from yeast culture supernatant (ammonium sulfate, Superdex 200); Mr 101,000 by SDS-PAGE
Km [3]: 78.6 mM
Vmax [3]: 99500 µM/min
